Source: patent US11492597B2, “Method for establishing colorectal cancer HK2 reporter gene cell line” (Guangdong Medical University, priority 2018, dated 2022)

Legend:
[1] = test system: EGFP; experiment: 2-MeOE2 treatment of HK2 reporter cell line, transcriptional level of EGFP reporter; format: cell-based; details: HK2 cell line treated for 24 h or 48 h, 10 uM, relative transcriptional level vs untreated control
Protocol: (§1) 2-Methoxyestradiol (2-MeOE2) is an HIF inhibitor, and at present, has entered an anti-tumor clinical second-stage test stage. […] The HK2 cell line is treated for 24 h or 48 h in 2-MeOE2 (10 uM), and the relative expression changes of the transcriptional level of HK2 and EGFP and those untreated as a control are analyzed. […] The experimental result further proves that the colorectal cancer HK2 reporter gene cell line constructed in the present invention can be used for screening and evaluating related anticancer drugs.

[2] = test system: HK2; experiment: 2-MeOE2 treatment of HK2 reporter cell line, transcriptional level of HK2; format: cell-based; details: HK2 cell line treated for 24 h or 48 h, 10 uM, relative transcriptional level vs untreated control
Protocol: as §1

For COc1cc2c(cc1O)CC[C@@H]1[C@@H]2CC[C@]2(C)[C@@H](O)CC[C@@H]12 [2-MeOE2, 2-Methoxyestradiol], the “expression of the EGFP” value [1] was “synergistically inhibited” and the “expression level of HK2” value [2] was “obviously inhibited”.
